# “And” between values parts separate entries of the source, which are not always exact repeats. Identical values can stand only once.
# Legend:
# [1] = system: VRSA 52 and E. coli ATCC25922; test: ROS fluorescent probe assay (DCFH‐DA); assay type: cell-based; settings: DCFH‐DA 10 µM, 1 h
# Protocol: In accordance with the experimental methods described in previous literature,^[ [42] ^] […] The DCFH‐DA probe (Sigma‐Aldrich, US) was then added at a final concentration of 10 µM, and the mixture was incubated for 30 min at 37 °C, protected from light. After incubation, the samples were centrifuged to remove residual DCFH‐DA. The stained bacterial solution was transferred to a 96‐well black plate and mixed with varying concentrations of drugs (vancomycin, MSI‐78, and Vm‐MSI). Polymyxin B was used as a positive control, while PBS buffer served as a negative control. The plates were incubated at 37 °C for 1 h, protected from light. Finally, fluorescence was recorded using a Tecan Infinite M1000 PRO microplate reader (Tecan, Switzerland) with an excitation wavelength of 488 nm and an emission wavelength of 525 nm.
# VRSA 52 = test: microbe, parasite or virus in culture; settings: Staphylococcus aureus, 18 h
# MDR P. aeruginosa 5 = test: microbe, parasite or virus in culture; settings: Pseudomonas aeruginosa, 18 h
# [2] = system: 29 bacterial strains (11 Gram‐positive, 18 Gram‐negative); test: GM of the MICs across the 29 bacterial strains; assay type: cell-based; settings: read-out: GM: Geometric mean of the MICs across the 29 bacterial strains
# Protocol: (§1) The 2 fold broth microdilution method was performed following previously established protocols.^[ [65], [66] ^] A total of 29 strains of human pathogenic microorganisms (11 Gram‐positive and 18 Gram‐negative) were included in the assay. Standard strains were maintained in our laboratory, and clinical isolates were obtained from the Fourth Affiliated Hospital of Soochow University. […] Gradient dilutions of the drugs (vancomycin, AMPs, and vancomycin‐AMP conjugates) were prepared in 96‐well plates, with 50 µL of each drug solution added per well. For the vancomycin and AMP mixture, 25 µL of vancomycin was combined with 25 µL of AMP at the corresponding monomer gradient concentration, resulting in a total volume of 50 µL. […] Following incubation, bacterial growth was assessed by measuring absorbance at 600 nm. The MIC was defined as the lowest concentration at which no bacterial growth was detected.
# P. aeruginosa 52097 = test: MIC, 2 fold broth microdilution; assay type: cell-based; settings: Pseudomonas aeruginosa, MH broth, 37 °C, 18 h, OD600, read-out: MIC
# Protocol: as §1
# S. flexneri CMCC51571 = test: MIC, 2 fold broth microdilution; assay type: cell-based; settings: Shigella flexneri, MH broth, 37 °C, 18 h, OD600, read-out: MIC
# Protocol: as §1
# P. aeruginosa CMCC10104 = test: MIC, 2 fold broth microdilution; assay type: cell-based; settings: Pseudomonas aeruginosa, MH broth, 37 °C, 18 h, OD600, read-out: MIC
# Protocol: as §1
# S. typhimurium CICC21483 = test: MIC, 2 fold broth microdilution; assay type: cell-based; settings: Salmonella enterica, MH broth, 37 °C, 18 h, OD600, read-out: MIC
# Protocol: as §1
# S. flexneri ATCC12022 = test: MIC, 2 fold broth microdilution; assay type: cell-based; settings: Shigella flexneri, MH broth, 37 °C, 18 h, OD600, read-out: MIC
# Protocol: as §1
# P. aeruginosa 60357 = test: MIC, 2 fold broth microdilution; assay type: cell-based; settings: Pseudomonas aeruginosa, MH broth, 37 °C, 18 h, OD600, read-out: MIC
# Protocol: as §1
# [3] = system: V. parahemolyticus ATCC17802; test: MIC, 2 fold broth microdilution; assay type: cell-based; settings: MH broth, 37 °C, 18 h, OD600, read-out: MIC
# Protocol: as §1
# B. cereus CMCC63301 = test: MIC, 2 fold broth microdilution; assay type: cell-based; settings: Bacillus cereus, MH broth, 37 °C, 18 h, OD600, read-out: MIC
# Protocol: as §1
# E. faecalis 2 = test: microbe, parasite or virus in culture; settings: Enterococcus faecalis, 2, 18 h
# E. coli ATCC25922 [4] = test: Live/dead bacteria staining (PI/SYTO9, CLSM); assay type: cell-based; settings: 4 µM, 1 h
# E. coli ATCC25922 [5] = test: microbe, parasite or virus in culture; settings: Escherichia coli, ATCC25922, 18 h
# MDR K. pneumoniae 2 = test: microbe, parasite or virus in culture; settings: Klebsiella pneumoniae, 18 h
# S. aureus CMCC26003 = test: Antimicrobial blockade experiment using D‐Ala‐D‐Ala; assay type: cell-based; settings: D‐Ala‐D‐Ala 0 to 128 µg mL^−1
# From the text: In accordance with the experimental methods described in previous literature,^[ [42] ^]
# MDR K. pneumoniae 4 = test: microbe, parasite or virus in culture; settings: Klebsiella pneumoniae, 18 h
# VRSA 52 biofilms = settings: 8 µM, 4 h, SYTO9/PI CLSM
# S. typhimurium ATCC14028 = test: microbe, parasite or virus in culture; settings: Salmonella enterica, 18 h
# E. faecalis ATCC29212 = test: microbe, parasite or virus in culture; settings: Enterococcus faecalis, ATCC29212, 18 h
smiles,measurement,setting,value
"CN[C@H](CC(C)C)C(=O)N[C@H]1C(=O)N[C@@H](CC(N)=O)C(=O)N[C@H]2C(=O)N[C@H]3C(=O)N[C@H](C(=O)N[C@H](C(=O)O)c4cc(O)cc(O)c4-c4cc3ccc4O)[C@H](O)c3ccc(c(Cl)c3)Oc3cc2cc(c3O[C@@H]2O[C@H](CO)[C@@H](O)[C@H](O)[C@H]2O[C@H]2C[C@](C)(N)[C@H](O)[C@H](C)O2)Oc2ccc(cc2Cl)[C@H]1O [Vm, vancomycin]",intracellular ROS production,[1],did not induce ROS production
same,MIC,VRSA 52,> 67.3 µM and > 100 µg/mL
same,MIC,MDR P. aeruginosa 5,> 67.3 µM
same,MIC,[2],55.1 µM
same,MIC,P. aeruginosa 52097,> 67.3 µM
same,MIC,S. flexneri CMCC51571,> 67.3 µM
same,MIC,P. aeruginosa CMCC10104,> 67.3 µM
same,MIC,S. typhimurium CICC21483,> 67.3 µM
same,MIC,S. flexneri ATCC12022,50.5 µM
same,MIC,P. aeruginosa 60357,> 67.3 µM
same,MIC,[3],50.5 µM
same,MIC,B. cereus CMCC63301,50.5 µM
same,MIC,E. faecalis 2,> 67.3 µM
same,bacteria killed (mortality),E. coli ATCC25922 [4],6%
same,MIC,E. coli ATCC25922 [5],> 67.3 µM and > 100 µg/mL
same,MIC,MDR K. pneumoniae 2,> 67.3 µM
same,fold increase in the MIC value on exogenous addition of D‐Ala‐D‐Ala,S. aureus CMCC26003,> 25 fold
same,MIC,MDR K. pneumoniae 4,> 67.3 µM
same,killing in the surface layer of the biofilm (dead cells),VRSA 52 biofilms,25%
same,MIC,S. typhimurium ATCC14028,> 67.3 µM and > 100 µg/mL
same,MIC,E. faecalis ATCC29212,> 67.3 µM and > 100 µg/mL

# From paper PMC12931196, “Vm–MSI: a Vancomycin–Antimicrobial Peptide Conjugate Combating Resistant Bacteria and Broadening the Antimicrobial Spectrum” (Advanced Science, 2025)
